How the values were obtained:
[1] = tested on: OCUM-1 (Gastric Carcinoma); experiment: Bliss excess, mean over the matrix (fraction); higher = more synergy
Summary of the method: (§1)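 Cell lines in DMEM/F12 or RPMI with 10% FBS were plated in 1536-well plates, held 24 hours at 37°C, 5% CO2, then given two-drug dose matrices for 72 hours (DMSO typically 0.2%). Viability was read by CellTiter-Glo 2.0 luminescence and scaled as inhibition from 0 (vehicle wells) to 1 (blank wells). Combination Emax is the second-highest inhibition in the matrix; Bliss excess is observed combination effect minus expected EA + EB − EA·EB, EA and EB being single-agent effects.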

[2] = tested on: KINGS-1 (Low Grade Glioma); experiment: as above
Summary of the method: as §1

[3] = tested on: HSC-2 (Oral Cavity Carcinoma); experiment: as above
Summary of the method: as §1

[4] = tested on: EW-3 (Ewing's Sarcoma); experiment: as above
Summary of the method: as §1

[5] = tested on: NCI-N87 (Gastric Carcinoma); experiment: as above
Summary of the method: as §1

[6] = tested on: LC4-1 (B-Lymphoblastic Leukemia); experiment: as above
Summary of the method: as §1

[7] = tested on: OCUB-M (Breast Carcinoma); experiment: as above
Summary of the method: as §1

[8] = tested on: SNU-C1 (Colorectal Carcinoma); experiment: as above
Summary of the method: as §1

[9] = tested on: H-EMC-SS (Chondrosarcoma); experiment: as above
Summary of the method: as §1

[10] = tested on: GI-1 (Glioblastoma); experiment: as above
Summary of the method: as §1

[11] = tested on: VMRC-LCD (Lung Adenocarcinoma); experiment: as above
Summary of the method: as §1

[12] = tested on: SCC-9 (Oral Cavity Carcinoma); experiment: as above
Summary of the method: as §1

[13] = tested on: JHH-7 (Hepatocellular Carcinoma); experiment: as above
Summary of the method: as §1

[14] = tested on: NB7 (Neuroblastoma); experiment: as above
Summary of the method: as §1

[15] = tested on: TGBC11TKB (Gastric Carcinoma); experiment: as above
Summary of the method: as §1

[16] = tested on: OCUM-1 (Gastric Carcinoma); experiment: combination Emax (second highest fraction inhibited in the dose matrix, 72 h); higher = more inhibition; extreme values may be limits of the assay
Summary of the method: as §1

[17] = tested on: KINGS-1 (Low Grade Glioma); experiment: as above
Summary of the method: as §1

[18] = tested on: HSC-2 (Oral Cavity Carcinoma); experiment: as above
Summary of the method: as §1

[19] = tested on: EW-3 (Ewing's Sarcoma); experiment: as above
Summary of the method: as §1

[20] = tested on: NCI-N87 (Gastric Carcinoma); experiment: as above
Summary of the method: as §1

[21] = tested on: LC4-1 (B-Lymphoblastic Leukemia); experiment: as above
Summary of the method: as §1

[22] = tested on: OCUB-M (Breast Carcinoma); experiment: as above
Summary of the method: as §1

[23] = tested on: SNU-C1 (Colorectal Carcinoma); experiment: as above
Summary of the method: as §1

[24] = tested on: H-EMC-SS (Chondrosarcoma); experiment: as above
Summary of the method: as §1

[25] = tested on: GI-1 (Glioblastoma); experiment: as above
Summary of the method: as §1

[26] = tested on: VMRC-LCD (Lung Adenocarcinoma); experiment: as above
Summary of the method: as §1

[27] = tested on: SCC-9 (Oral Cavity Carcinoma); experiment: as above
Summary of the method: as §1

[28] = tested on: JHH-7 (Hepatocellular Carcinoma); experiment: as above
Summary of the method: as §1

[29] = tested on: NB7 (Neuroblastoma); experiment: as above
Summary of the method: as §1

[30] = tested on: TGBC11TKB (Gastric Carcinoma); experiment: as above
Summary of the method: as §1
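Throughout, for Bliss excess, mean over the matrix: after 72 h of two-drug dosing.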

O=C(c1cc(Cc2n[nH]c(=O)c3ccccc23)ccc1F)N1CCN(C(=O)C2CC2)CC1 [Olaparib] + CN(CC[C@H](CSC1=CC=CC=C1)NC2=C(C=C(C=C2)S(=O)(=O)NC(=O)C3=CC=C(C=C3)N4CCC(CC4)[C@H](C5=CC=CC=C5C6=CC=C(C=C6)Cl)O)S(=O)(=O)C(F)(F)F)CCO [AZD4320] (first compound max 10 µM, 7x7, partner max 1 µM)
Bliss excess [1]: 0.0129 | Bliss excess [2]: -0.0792 | Bliss excess [3]: 0.0039 | Bliss excess [4]: 0.0125 | Bliss excess [5]: -0.0729 | Bliss excess [6]: 0.0153 | Bliss excess [7]: -0.0115 | Bliss excess [8]: -0.055 | Bliss excess [9]: 0.0051 | Bliss excess [10]: 0.0255 | Bliss excess [11]: -0.029 | Bliss excess [12]: -0.0395 | Bliss excess [13]: -0.0326 | Bliss excess [14]: -0.0251 | Bliss excess [15]: 0.0082 | combination Emax [16]: 0.834 | combination Emax [17]: 0.646 | combination Emax [18]: 0.201 | combination Emax [19]: 0.904 | combination Emax [20]: 0.503 | combination Emax [21]: 1 | combination Emax [22]: 0.454 | combination Emax [23]: 0.613 | combination Emax [24]: 0.422 | combination Emax [25]: 0.302 | combination Emax [26]: 0.114 | combination Emax [27]: 0.398 | combination Emax [28]: 0.203 | combination Emax [29]: 0.393 | combination Emax [30]: 0.42

O=C(c1cc(Cc2n[nH]c(=O)c3ccccc23)ccc1F)N1CCN(C(=O)C2CC2)CC1 [Olaparib] + COc1nnc2ccc(N3CCC(c4ccc(OCCN5CCN(C)C(=O)[C@H]5C)cc4)CC3)nn12 [AZD5153] (first compound max 10 µM, 7x7, partner max 1 µM)
Bliss excess [1]: -0.0755 | Bliss excess [2]: -0.0773 | Bliss excess [3]: -0.0679 | Bliss excess [4]: -0.0528 | Bliss excess [5]: -0.019 | Bliss excess [6]: -0.115 | Bliss excess [7]: -0.0609 | Bliss excess [8]: -0.0531 | Bliss excess [9]: -0.0456 | Bliss excess [10]: 0.0092 | Bliss excess [11]: -0.0707 | Bliss excess [12]: -0.0418 | Bliss excess [13]: -0.0336 | Bliss excess [14]: -0.0339 | Bliss excess [15]: -0.0543 | combination Emax [16]: 0.488 | combination Emax [17]: 0.0844 | combination Emax [18]: 0.563 | combination Emax [19]: 0.842 | combination Emax [20]: 0.528 | combination Emax [21]: 0.899 | combination Emax [22]: 0.384 | combination Emax [23]: 0.524 | combination Emax [24]: 0.218 | combination Emax [25]: 0.738 | combination Emax [26]: 0.35 | combination Emax [27]: 0.288 | combination Emax [28]: 0.237 | combination Emax [29]: 0.359 | combination Emax [30]: 0.284

O=C(c1cc(Cc2n[nH]c(=O)c3ccccc23)ccc1F)N1CCN(C(=O)C2CC2)CC1 [Olaparib] + Cc1c2c(nn1C)CSCc1cc(n(C)n1)CSc1cc(c3ccccc3c1)OCCCc1c(C(=O)O)n(C)c3c-2c(Cl)ccc13 [AZD5991] (first compound max 10 µM, 7x7, partner max 1 µM)
Bliss excess [1]: -0.0497 | Bliss excess [2]: -0.0514 | Bliss excess [3]: -0.0082 | Bliss excess [4]: -0.0215 | Bliss excess [5]: -0.0285 | Bliss excess [6]: -0.0181 | Bliss excess [7]: -0.0142 | Bliss excess [8]: -0.0155 | Bliss excess [9]: -0.0401 | Bliss excess [10]: 0.0065 | Bliss excess [11]: -0.0349 | Bliss excess [12]: -0.0478 | Bliss excess [13]: -0.0457 | Bliss excess [14]: -0.0154 | Bliss excess [15]: 0.0015 | combination Emax [16]: 0.0756 | combination Emax [17]: 0.0927 | combination Emax [18]: 0.88 | combination Emax [19]: 0.869 | combination Emax [20]: 0.203 | combination Emax [21]: 0.955 | combination Emax [22]: 0.924 | combination Emax [23]: 0.362 | combination Emax [24]: 0.129 | combination Emax [25]: 0.51 | combination Emax [26]: 0.111 | combination Emax [27]: 0.154 | combination Emax [28]: 0.0758 | combination Emax [29]: 0.595 | combination Emax [30]: 0.509

N#Cc1cnc(Nc2cc(NC[C@H]3CNCCO3)c(C(F)(F)F)cn2)cn1 [SRA737] + C=CCn1c(=O)c2cnc(Nc3ccc(N4CCN(C)CC4)cc3)nc2n1-c1cccc(C(C)(C)O)n1 [AZD1775] (first compound max 10 µM, partner max 1 µM)
Bliss excess [1]: 0.0537 | Bliss excess [2]: 0.0035 | Bliss excess [3]: 0.0573 | Bliss excess [4]: 0.0086 | Bliss excess [5]: 0.0275 | Bliss excess [6]: 0.0618 | Bliss excess [7]: 0.102 | Bliss excess [8]: 0.12 | Bliss excess [9]: 0.0311 | Bliss excess [10]: 0.0907 | Bliss excess [11]: -0.0067 | Bliss excess [12]: 0.0078 | Bliss excess [13]: -0.0263 | Bliss excess [14]: 0.0949 | Bliss excess [15]: 0.0401 | combination Emax [16]: 0.53 | combination Emax [17]: 0.412 | combination Emax [18]: 0.584 | combination Emax [19]: 0.501 | combination Emax [20]: 0.828 | combination Emax [21]: 0.891 | combination Emax [22]: 0.637 | combination Emax [23]: 0.789 | combination Emax [24]: 0.354 | combination Emax [25]: 0.91 | combination Emax [26]: 0.778 | combination Emax [27]: 0.326 | combination Emax [28]: 0.543 | combination Emax [29]: 0.849 | combination Emax [30]: 0.919

N#Cc1cnc(Nc2cc(NC[C@H]3CNCCO3)c(C(F)(F)F)cn2)cn1 [SRA737] + Nc1ccn([C@@H]2O[C@H](CO)[C@@H](O)C2(F)F)c(=O)n1 [Gemcitabine] (first compound max 10 µM, 7x7, partner max 0.3 µM)
Bliss excess [1]: -0.022 | Bliss excess [2]: -0.0208 | Bliss excess [3]: 0.059 | Bliss excess [4]: -0.0521 | Bliss excess [5]: -0.0415 | Bliss excess [6]: 0.113 | Bliss excess [7]: 0.0085 | Bliss excess [8]: -0.0175 | Bliss excess [9]: -0.0056 | Bliss excess [10]: 0.0455 | Bliss excess [11]: 0.0934 | Bliss excess [12]: 0.0211 | Bliss excess [13]: 0.0691 | Bliss excess [14]: 0.0519 | Bliss excess [15]: 0.0075 | combination Emax [16]: 0.709 | combination Emax [17]: 0.29 | combination Emax [18]: 0.959 | combination Emax [19]: 0.902 | combination Emax [20]: 0.702 | combination Emax [21]: 0.976 | combination Emax [22]: 0.951 | combination Emax [23]: 0.712 | combination Emax [24]: 0.542 | combination Emax [25]: 0.916 | combination Emax [26]: 0.773 | combination Emax [27]: 0.401 | combination Emax [28]: 0.569 | combination Emax [29]: 0.765 | combination Emax [30]: 0.942

Cc1nc(-c2cn3c(n2)-c2ccc(-c4cnn(C(C)(C)C(N)=O)c4)cc2OCC3)n(C(C)C)n1 [Taselisib] + O=C(Nc1ccc2[nH]nc(-c3ccncc3)c2c1)[C@@H]1CCN(CC(=O)N2CCN(c3ccc(-c4ncccn4)cc3)CC2)C1 [SCH772984] (first compound max 10 µM, 7x7, partner max 5 µM)
Bliss excess [1]: 0.016 | Bliss excess [2]: 0.139 | Bliss excess [3]: 0.0341 | Bliss excess [4]: 0.0884 | Bliss excess [5]: 0.0215 | Bliss excess [6]: 0.0661 | Bliss excess [7]: 0.0341 | Bliss excess [8]: 0.108 | Bliss excess [9]: 0.156 | Bliss excess [10]: 0.111 | Bliss excess [11]: -0.0342 | Bliss excess [12]: 0.151 | Bliss excess [13]: 0.0389 | Bliss excess [14]: -0.0014 | Bliss excess [15]: 0.177 | combination Emax [16]: 0.983 | combination Emax [17]: 0.749 | combination Emax [18]: 0.994 | combination Emax [19]: 0.608 | combination Emax [20]: 0.947 | combination Emax [21]: 0.588 | combination Emax [22]: 1 | combination Emax [23]: 0.932 | combination Emax [24]: 0.927 | combination Emax [25]: 0.732 | combination Emax [26]: 0.149 | combination Emax [27]: 0.959 | combination Emax [28]: 0.526 | combination Emax [29]: 0.264 | combination Emax [30]: 0.765

CC1(C)CCC(CN2CCN(c3ccc(C(=O)NS(=O)(=O)c4ccc(NCC5CCOCC5)c([N+](=O)[O-])c4)c(Oc4cnc5[nH]ccc5c4)c3)CC2)=C(c2ccc(Cl)cc2)C1 [Venetoclax] + CS(=O)(=O)CCNCc1ccc(-c2ccc3ncnc(Nc4ccc(OCc5cccc(F)c5)c(Cl)c4)c3c2)o1 [Lapatinib] (first compound max 1 µM, 7x7, partner max 10 µM)
Bliss excess [1]: -0.0196 | Bliss excess [2]: -0.0466 | Bliss excess [3]: -0.0145 | Bliss excess [4]: 0.0862 | Bliss excess [5]: -0.0029 | Bliss excess [6]: 0.0233 | Bliss excess [7]: -0.0181 | Bliss excess [8]: -0.0495 | Bliss excess [9]: -0.0278 | Bliss excess [10]: 0.0283 | Bliss excess [11]: -0.0139 | Bliss excess [12]: -0.036 | Bliss excess [13]: -0.0408 | Bliss excess [14]: -0.0348 | Bliss excess [15]: 0.0197 | combination Emax [16]: 0.178 | combination Emax [17]: 0.208 | combination Emax [18]: 0.8 | combination Emax [19]: 0.55 | combination Emax [20]: 0.931 | combination Emax [21]: 1 | combination Emax [22]: 0.518 | combination Emax [23]: 0.0031 | combination Emax [24]: 0.188 | combination Emax [25]: 0.284 | combination Emax [26]: 0.256 | combination Emax [27]: 0.955 | combination Emax [28]: 0.335 | combination Emax [29]: 0.117 | combination Emax [30]: 0.325
